{"source": "ChEMBL document CHEMBL2311364", "about": "“Novel peptidomimetics as BACE-1 inhibitors: synthesis, molecular modeling, and biological studies” (Bioorg Med Chem Lett, 2013)", "key": {"Beta-secretase 1 [1]": {"target": "T1, Beta-secretase 1 (Homo sapiens, UniProt P56817)", "T1 sequence (P56817 whole entry)": "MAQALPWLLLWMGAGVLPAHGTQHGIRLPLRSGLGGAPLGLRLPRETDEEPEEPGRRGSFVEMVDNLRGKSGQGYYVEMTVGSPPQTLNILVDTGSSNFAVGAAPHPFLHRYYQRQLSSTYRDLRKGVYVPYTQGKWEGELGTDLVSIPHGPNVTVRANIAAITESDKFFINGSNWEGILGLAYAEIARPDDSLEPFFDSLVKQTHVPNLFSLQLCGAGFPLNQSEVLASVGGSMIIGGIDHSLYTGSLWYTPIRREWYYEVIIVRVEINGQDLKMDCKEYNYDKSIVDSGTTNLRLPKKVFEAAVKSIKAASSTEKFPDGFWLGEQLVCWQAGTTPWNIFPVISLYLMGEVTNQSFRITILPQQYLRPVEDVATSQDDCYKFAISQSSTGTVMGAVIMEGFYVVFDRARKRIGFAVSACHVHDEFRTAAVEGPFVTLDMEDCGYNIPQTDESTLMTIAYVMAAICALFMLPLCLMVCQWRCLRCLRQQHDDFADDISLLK", "experiment": "Inhibition of human recombinant BACE-1 using acetyl-C(W8044-Eu)-EVNLDAEFK-QSY7 as substrate by TR-FRET assay"}, "Beta-secretase 1 [2]": {"target": "T1, Beta-secretase 1", "experiment": "Inhibition of human recombinant BACE-1 using acetyl-C(W8044-Eu)-EVNLDAEFK-QSY7 as substrate at 100 uM by TR-FRET assay"}, "Beta-secretase 1 [3]": {"target": "T1, Beta-secretase 1", "experiment": "Inhibition of BACE1 in HEK293 cells expressing modified BACE cleavage sequence of APP, NFEV and K612V mutation", "type": "cell-based"}, "Beta-secretase 1 [4]": {"target": "T1, Beta-secretase 1", "experiment": "Inhibition of BACE1 in human SHSY5Y cells expressing APP NFEV and wild-type alpha-cleavage site", "type": "cell-based, SH-SY5Y"}}, "note": "Calls of active or inactive are those of the source. The calls are words filed in the database; no cut-off is given here.", "data": [{"smiles": "O=C1Nc2ccccc2C(c2ccccc2)=N[C@H]1C(O)CN1CCNCC1", "note": "(stereo partly drawn)", "values": [{"measurement": "IC50", "setting": "Beta-secretase 1 [1]", "result": 12.5, "unit": "µM"}]}, {"smiles": "CC(C)(C)OC(=O)N1CCN(c2cccc3c2NC(=O)[C@H](CCc2ccccc2)N=C3c2ccccc2)CC1", "values": [{"measurement": "inhibition", "setting": "Beta-secretase 1 [2]", "result": "inactive"}]}, {"smiles": "O=C1Nc2c(cccc2N2CCNCC2)C(c2ccccc2)=N[C@H]1c1ccccc1", "values": [{"measurement": "inhibition", "setting": "Beta-secretase 1 [2]", "result": "inactive"}]}, {"smiles": "CC(C)(C)OC(=O)N1CCN(c2cccc3c2NC(=O)[C@H](Cc2ccccc2)N=C3c2ccccc2)CC1", "values": [{"measurement": "inhibition", "setting": "Beta-secretase 1 [2]", "result": "inactive"}]}, {"smiles": "O=C(N[C@H](C(=O)Nc1cc(C(O)CNCc2ccccc2)ccc1C(=O)c1ccccc1)c1ccccc1)OCc1ccccc1", "note": "(stereo partly drawn)", "values": [{"measurement": "IC50", "setting": "Beta-secretase 1 [1]", "result": 2.4, "unit": "µM"}, {"measurement": "IC50", "setting": "Beta-secretase 1 [3]", "result": "> 2.6", "unit": "µM"}, {"measurement": "IC50", "setting": "Beta-secretase 1 [4]", "result": "> 1.2", "unit": "µM"}]}, {"smiles": "CC(C)(C)OC(=O)N1CCN(CC(O)c2ccc3c(c2)NC(=O)[C@@H](c2ccccc2)N=C3c2ccccc2)CC1", "note": "(stereo partly drawn)", "values": [{"measurement": "inhibition", "setting": "Beta-secretase 1 [2]", "result": "inactive"}]}, {"smiles": "CC(C)(C)OC(=O)N1CCN(CC(O)c2ccc(C(=O)c3ccccc3)c(NC(=O)[C@H](NC(=O)OCc3ccccc3)c3ccccc3)c2)CC1", "note": "(stereo partly drawn)", "values": [{"measurement": "IC50", "setting": "Beta-secretase 1 [1]", "result": 4.9, "unit": "µM"}]}, {"smiles": "O=C1Nc2cc(C(CO)NCc3ccccc3)ccc2C(c2ccccc2)=N[C@@H]1c1ccccc1", "note": "(stereo partly drawn)", "values": [{"measurement": "IC50", "setting": "Beta-secretase 1 [1]", "result": 10.9, "unit": "µM"}]}, {"smiles": "O=C1Nc2cc(C(CO)NCc3ccccc3)ccc2C(c2ccccc2)=N[C@H]1c1ccccc1", "note": "(stereo partly drawn)", "values": [{"measurement": "IC50", "setting": "Beta-secretase 1 [3]", "result": "> 22", "unit": "µM"}, {"measurement": "IC50", "setting": "Beta-secretase 1 [4]", "result": "> 11", "unit": "µM"}]}, {"smiles": "O=C(N[C@@H](C(=O)Nc1cc(C(O)CNCc2ccccc2)ccc1C(=O)c1ccccc1)c1ccccc1)OCc1ccccc1", "note": "(stereo partly drawn)", "values": [{"measurement": "IC50", "setting": "Beta-secretase 1 [1]", "result": 2.6, "unit": "µM"}, {"measurement": "IC50", "setting": "Beta-secretase 1 [3]", "result": "> 2.6", "unit": "µM"}, {"measurement": "IC50", "setting": "Beta-secretase 1 [4]", "result": "> 1.2", "unit": "µM"}]}, {"smiles": "CC(C)(C)OC(=O)N1CCN(c2cccc3c2NC(=O)[C@@H](c2ccccc2)N=C3c2ccccc2)CC1", "values": [{"measurement": "IC50", "setting": "Beta-secretase 1 [1]", "result": 43, "unit": "µM"}]}, {"smiles": "CC(C)(C)OC(=O)N1CCN(c2cccc(C(=O)c3ccccc3)c2NC(=O)[C@@H](NC(=O)OCc2ccccc2)c2ccccc2)CC1", "values": [{"measurement": "inhibition", "setting": "Beta-secretase 1 [2]", "result": "inactive"}]}, {"smiles": "CC(C)(C)OC(=O)N1CCN(c2cccc3c2NC(=O)[C@H](c2ccccc2)N=C3c2ccccc2)CC1", "values": [{"measurement": "IC50", "setting": "Beta-secretase 1 [1]", "result": 35, "unit": "µM"}]}, {"smiles": "O=C(N[C@@H](C(=O)Nc1cc(C(CO)NCc2ccccc2)ccc1C(=O)c1ccccc1)c1ccccc1)OCc1ccccc1", "note": "(stereo partly drawn)", "values": [{"measurement": "IC50", "setting": "Beta-secretase 1 [1]", "result": 4.2, "unit": "µM"}]}, {"smiles": "O=C(N[C@H](C(=O)Nc1cc(C(CO)NCc2ccccc2)ccc1C(=O)c1ccccc1)c1ccccc1)OCc1ccccc1", "note": "(stereo partly drawn)", "values": [{"measurement": "IC50", "setting": "Beta-secretase 1 [1]", "result": 4.1, "unit": "µM"}, {"measurement": "IC50", "setting": "Beta-secretase 1 [3]", "result": "> 2.6", "unit": "µM"}, {"measurement": "IC50", "setting": "Beta-secretase 1 [4]", "result": "> 1.2", "unit": "µM"}]}, {"smiles": "O=C1Nc2cc(C(O)CNCc3ccccc3)ccc2C(c2ccccc2)=N[C@@H]1c1ccccc1", "note": "(stereo partly drawn)", "values": [{"measurement": "inhibition", "setting": "Beta-secretase 1 [2]", "result": "inactive"}]}]}
